Measurements published in the NIST ThermoML archive (doi:10.1021/je049895b).
Where “and” joins values, the source holds several entries; their conditions need not be identical. Equal values may be shown once. ± gives the expanded uncertainty stated by the source.

Assays:
[1] = 101.33 kPa, Liquid; for viscosity: Capillary tube (Ostwald / Ubbelohde) method
[2] = xn = mol fraction of the nth substance listed; settings: 101.33 kPa, Liquid; for viscosity: Capillary tube (Ostwald / Ubbelohde) method

Compound	mass density ([1]; 293.15 K) [kg/m3]	speed of sound ([1]; 293.15 K)	viscosity ([1]; 293.15 K) [mPa·s]	mass density ([1]; 298.15 K) [kg/m3]	speed of sound ([1]; 298.15 K) [m/s]	viscosity ([1]; 298.15 K) [mPa·s]	mass density ([1]; 303.15 K) [kg/m3]	speed of sound ([1]; 303.15 K)	viscosity ([1]; 303.15 K) [mPa·s]	mass density ([1]; 308.15 K) [kg/m3]	speed of sound ([1]; 308.15 K) [m/s]	viscosity ([1]; 308.15 K) [mPa·s]	mass density ([1]; 313.15 K) [kg/m3]	speed of sound ([1]; 313.15 K) [m/s]	viscosity ([1]; 313.15 K) [mPa·s]	further results
C1CCCC1 [cyclopentane]	744.43 ± 0.51	1232 ± 2 m/s	0.438 ± 0.02	739.47 ± 0.51	1206 ± 2	0.415 ± 0.02	734.47 ± 0.51	1180 ± 2 m/s	0.394 ± 0.02	729.42 ± 0.51	1154 ± 2	0.374 ± 0.02	724.32 ± 0.51	1129 ± 2	0.355 ± 0.02	–
CCOC(=O)OCC [diethyl carbonate]	974.8 ± 0.27	1197 ± 2 m/s and 1198 ± 2 m/s	0.809 ± 0.021	969.21 ± 0.27	1177 ± 2	0.75 ± 0.021	963.58 ± 0.27	1156 ± 2 m/s and 1157 ± 2 m/s	0.702 ± 0.021	957.93 ± 0.28	1136 ± 2	0.658 ± 0.02	952.26 ± 0.28	1116 ± 2	0.618 ± 0.02	–
CCOC(=O)OCC [diethyl carbonate] + C1CCCC1	–	–	–	–	–	–	–	–	–	–	–	–	–	–	–	viscosity ([2]; 293.15 K, x1 = 1): 0.809 ± 0.021 mPa·s; mass density ([2]; 293.15 K, x1 = 1): 974.8 ± 0.27 kg/m3; speed of sound ([2]; 293.15 K, x1 = 1): 1197 ± 2 m/s; viscosity ([2]; 298.15 K, x1 = 1): 0.75 ± 0.021 mPa·s; mass density ([2]; 298.15 K, x1 = 1): 969.21 ± 0.27 kg/m3; speed of sound ([2]; 298.15 K, x1 = 1): 1177 ± 2 m/s; viscosity ([2]; 303.15 K, x1 = 1): 0.702 ± 0.021 mPa·s; mass density ([2]; 303.15 K, x1 = 1): 963.58 ± 0.27 kg/m3; speed of sound ([2]; 303.15 K, x1 = 1): 1156 ± 2 m/s; viscosity ([2]; 308.15 K, x1 = 1): 0.658 ± 0.02 mPa·s; mass density ([2]; 308.15 K, x1 = 1): 957.93 ± 0.28 kg/m3; speed of sound ([2]; 308.15 K, x1 = 1): 1136 ± 2 m/s; viscosity ([2]; 313.15 K, x1 = 1): 0.618 ± 0.02 mPa·s; mass density ([2]; 313.15 K, x1 = 1): 952.26 ± 0.28 kg/m3; speed of sound ([2]; 313.15 K, x1 = 1): 1116 ± 2 m/s
COC(=O)OC [dimethyl carbonate]	1069.9 ± 0.56	1220 ± 2 m/s	0.623 ± 0.021	1063.33 ± 0.56	1198 ± 2	0.584 ± 0.021	1056.71 ± 0.55	1177 ± 2 m/s	0.549 ± 0.02	1050.07 ± 0.55	1155 ± 2	0.517 ± 0.02	1043.39 ± 0.54	1134 ± 2	0.488 ± 0.02	–
COC(=O)OC [dimethyl carbonate] + C1CCCC1	–	–	–	–	–	–	–	–	–	–	–	–	–	–	–	viscosity ([2]; 293.15 K, x1 = 1): 0.623 ± 0.021 mPa·s; mass density ([2]; 293.15 K, x1 = 1): 1069.9 ± 0.56 kg/m3; speed of sound ([2]; 293.15 K, x1 = 1): 1220 ± 2 m/s; viscosity ([2]; 298.15 K, x1 = 1): 0.584 ± 0.021 mPa·s; mass density ([2]; 298.15 K, x1 = 1): 1063.33 ± 0.56 kg/m3; speed of sound ([2]; 298.15 K, x1 = 1): 1198 ± 2 m/s; viscosity ([2]; 303.15 K, x1 = 1): 0.549 ± 0.02 mPa·s; mass density ([2]; 303.15 K, x1 = 1): 1056.71 ± 0.55 kg/m3; speed of sound ([2]; 303.15 K, x1 = 1): 1177 ± 2 m/s; viscosity ([2]; 308.15 K, x1 = 1): 0.517 ± 0.02 mPa·s; mass density ([2]; 308.15 K, x1 = 1): 1050.07 ± 0.55 kg/m3; speed of sound ([2]; 308.15 K, x1 = 1): 1155 ± 2 m/s; viscosity ([2]; 313.15 K, x1 = 1): 0.488 ± 0.02 mPa·s; mass density ([2]; 313.15 K, x1 = 1): 1043.39 ± 0.54 kg/m3; speed of sound ([2]; 313.15 K, x1 = 1): 1134 ± 2 m/s
CC1CCCCC1 [methylcyclohexane]	–	1237 ± 2 m/s	0.729 ± 0.021	–	1215 ± 2	0.681 ± 0.021	–	1193 ± 2 m/s	0.637 ± 0.021	–	1172 ± 2	0.598 ± 0.021	–	1150 ± 2	0.562 ± 0.021	–
CC1CCCCC1 [methylcyclohexane] + CCOC(=O)OCC	–	–	–	–	–	–	–	–	–	–	–	–	–	–	–	viscosity ([2]; 293.15 K, x2 = 0): 0.729 ± 0.021 mPa·s; speed of sound ([2]; 293.15 K, x2 = 0): 1237 ± 2 m/s; viscosity ([2]; 298.15 K, x2 = 0): 0.681 ± 0.021 mPa·s; speed of sound ([2]; 298.15 K, x2 = 0): 1215 ± 2 m/s; viscosity ([2]; 303.15 K, x2 = 0): 0.637 ± 0.021 mPa·s; speed of sound ([2]; 303.15 K, x2 = 0): 1193 ± 2 m/s; viscosity ([2]; 308.15 K, x2 = 0): 0.598 ± 0.021 mPa·s; speed of sound ([2]; 308.15 K, x2 = 0): 1172 ± 2 m/s; viscosity ([2]; 313.15 K, x2 = 0): 0.562 ± 0.021 mPa·s; speed of sound ([2]; 313.15 K, x2 = 0): 1150 ± 2 m/s
